The values that follow come from ChEMBL document CHEMBL1268832, “Discovery of a potent tubulin polymerization inhibitor: synthesis and evaluation of water-soluble prodrugs of benzophenone analog” (Bioorg Med Chem Lett, 2010).

Broadly, the IC50 is the midpoint of a concentration-inhibition curve. The solubility is the concentration that dissolves in the medium under given conditions. The half-life is how long it takes for the measured level to halve.

For one data set, the system named is HL-60. The data set can be described thus: Antiproliferative activity against human HL60 cells after 72 hrs by MTT assay. The format is functional, cell-based. The note with it: HL-60, 72 h. (In general: Tetrazolium assays rely on reduction of a dye to a coloured formazan, in cell work by metabolically active cells.)
Data set [1] in a line: Metabolic stability in dog liver microsomes assessed as compound remaining at 5 uM after 1 hr. The class given is ADME, Canis lupus familiaris, Microsome. The note with it: read-out: Stability. For orientation: Liver microsomes are vesicles of endoplasmic reticulum, rich in cytochrome P450 enzymes.
Data set [2] deals with Mus musculus. The data set can be described thus: Toxicity in human CX-1 cells xenografted in mouse assessed as chage in body weight at 5 mg/kg, ip for every 4 days 4 doses (Rbv = 24.5%). The format is organism-based. The arrangement: dose 5 mg/kg, route intraperitoneal. The settings on record: in vivo, 96 h. (In general: A xenograft is tissue or cells of one species grown in another, often human tumour cells in immunodeficient mice.)

In data set [3] the test system is Mus musculus. As to the kind of experiment: Toxicity in human CX-1 cells xenografted in mouse assessed as chage in body weight at 10 mg/kg, ip for every 4 days 4 doses (Rbv = 24.5%). The format is organism-based. The arrangement: dose 10 mg/kg, route intraperitoneal. The settings on record: in vivo, 96 h.
In data set [4] the test system is CX-1. As to the kind of experiment: Antitumor activity against human CX-1 cells xenografted in mouse assessed as tumor growth inhibition at 5 mg/kg, ip for every 4 days 4 doses. The class given is functional. The arrangement: scale not given: the % may be the effect or the level left. The settings on record: route intraperitoneal.
The test system of data set [5] is CX-1. The data set can be described thus: Antitumor activity against human CX-1 cells xenografted in mouse assessed as tumor growth inhibition at 10 mg/kg, ip for every 4 days 4 doses. The format is functional. The arrangement: scale not given: the % may be the effect or the level left. The note with it: route intraperitoneal.
For data set [6], the system named is CX-1. The data set can be described thus: Antitumor activity against human CX-1 cells xenografted in mouse assessed as mouse survival at 5 mg/kg, ip for every 4 days 4 doses. The class given is functional, organism-based. The arrangement: dose 5 mg/kg.
The subject of data set [7] is CX-1. As to the kind of experiment: Antitumor activity against human CX-1 cells xenografted in mouse assessed as mouse survival at 10 mg/kg, ip for every 4 days 4 doses. The class given is functional, organism-based. The arrangement: dose 10 mg/kg.
The subject of data set [8] is Mus musculus. The data set can be described thus: Toxicity in human HCT116 cells xenografted in mouse assessed as chage in body weight at 10 mg/kg, ip for every 4 days 4 doses (Rbv = -5.7%). The class given is organism-based, HCT-116. The arrangement: dose 10 mg/kg, route intraperitoneal. The note with it: in vivo, 96 h.
The test system of data set [9] is HCT-116. As to the kind of experiment: Antitumor activity against human HCT116 cells xenografted in mouse assessed as tumor growth inhibition at 10 mg/kg, ip for every 4 days 4 doses. The class given is functional. The arrangement: scale not given: the % may be the effect or the level left. The note with it: route intraperitoneal.
In data set [10] the test system is HCT-116. The data set can be described thus: Antitumor activity against human HCT116 cells xenografted in mouse assessed as mouse survival at 10 mg/kg, ip for every 4 days 4 doses. The format is functional, organism-based. The arrangement: dose 10 mg/kg.
The nature of data set [11]: Aqueous solubility of the compound in deionized water. The class given is physicochemical.
Data set [12] is described as follows: Metabolic stability in human liver microsomes assessed as compound remaining at 5 uM after 1 hr. The settings on record: read-out: Stability. The format is ADME, Microsome.
A short description of data set [13]: Half life in Sprague-Dawley rat at 10 mg/kg, iv. The class given is ADME, organism-based. The arrangement: dose 10 mg/kg, route intravenous. The note with it: in vivo.
In another data set the test system is MDA-MB-231. As to the kind of experiment: Antiproliferative activity against P-gp expressing multidrug-resistant human MDA-MB-231 cells after 72 hrs by MTT assay. The format is functional, cell-based. The note with it: MDA-MB-231, 72 h.
Data set [14] deals with Mus musculus. As to the kind of experiment: Toxicity in human HCT116 cells xenografted in mouse assessed as chage in body weight at 5 mg/kg, ip for every 4 days 4 doses (Rbv = -5.7%). The note with it: in vivo, 96 h. The class given is organism-based, HCT-116. The arrangement: dose 5 mg/kg, route intraperitoneal.
The subject of data set [15] is HCT-116. As to the kind of experiment: Antitumor activity against human HCT116 cells xenografted in mouse assessed as tumor growth inhibition at 5 mg/kg, ip for every 4 days 4 doses. The note with it: route intraperitoneal. The class given is functional. The arrangement: scale not given: the % may be the effect or the level left.
Data set [16] deals with HCT-116. As to the kind of experiment: Antitumor activity against human HCT116 cells xenografted in mouse assessed as mouse survival at 5 mg/kg, ip for every 4 days 4 doses. The format is functional, organism-based. The arrangement: dose 5 mg/kg.

Molecules are shown by their SMILES. In brackets after ≈: the same amount, converted by molar mass. Activity calls are given as the source filed them. The calls are words filed in the database; no cut-off is given here.

In the data set with HL-60, `COc1cc(C(=O)c2ccc(-c3csc(NC(=O)[C@@H](N)CC4CCCCC4)n3)cc2-n2cncn2)cc(OC)c1OC` returned an IC50 of 86 nM.

`COc1cc(C(=O)c2ccc(-c3csc(NC(=O)[C@H](N)Cc4ccc(Cl)cc4)n3)cc2-n2cncn2)cc(OC)c1OC`: inhibition in the data set on HL-60 was half-maximal at 920 nM (IC50).

Regarding `COc1cc(C(=O)c2ccc(-c3csc(NC(=O)[C@@H](N)C(C)C)n3)cc2-n2cncn2)cc(OC)c1OC`, the results for the remaining at 1 h, 5 µM in data set [1] and in data set [12] were 10% and 15%, respectively. In the data set on HL-60, this molecule displayed a 50% inhibitory concentration (IC50) of 110 nM. The Activity in the data set with Mus musculus [2] was 25.7%; in the data set with Mus musculus [3], 14.7%; in the data set with CX-1 [4], 28%; in the data set on CX-1 [5], 64%; in the data set with Mus musculus [8], 5.1%; in the data set on HCT-116 [9], 88%. In addition, the outcome in the data set on CX-1 [6], in the data set with CX-1 [7] and in the data set with HCT-116 [10] was Active. The molecule further came in with a solubility in data set [11] of 930 µg/mL (≈ 1730 µM). Besides, in data set [13], the half-life was found to be 0.41 min.

As for `COc1cc(C(=O)c2ccc(-c3csc(NC(=O)[C@H](N)c4ccccc4)n3)cc2-n2cncn2)cc(OC)c1OC`, in the data set with HL-60, the IC50 was 280 nM.

`COc1cc(C(=O)c2ccc(-c3csc(N)n3)cc2-n2cncn2)cc(OC)c1OC`: the remaining at 1 h, 5 µM in data set [1] and in [12] was 60% throughout. This molecule also had a solubility in data set [11] of less than 100 µg/mL. Moreover, the half-life in data set [13] came out at 1.65 min. The 50% inhibitory concentration (IC50) in the data set on MDA-MB-231 turned out to be 9.8 nM.

As to `COc1cc(C(=O)c2ccc(-c3csc(NC(=O)[C@@H](N)CO)n3)cc2-n2cncn2)cc(OC)c1OC`, the IC50 in the data set on HL-60 was 81 nM.

In the data set with MDA-MB-231, `COc1ccc(/C=C\c2cc(OC)c(OC)c(OC)c2)cc1N` showed an IC50 of 45 nM.

In the data set with HL-60, `COc1cc(C(=O)c2ccc(-c3csc(NC(=O)CN)n3)cc2-n2cncn2)cc(OC)c1OC` registered an IC50 of 27 nM. The Activity in the data set with Mus musculus [2] amounted to 22.2%; in the data set with Mus musculus [3], 21%; with CX-1 [4], 40%; with CX-1 [5], 44%. Further, the outcome in the data set on CX-1 [6] was Active.

On to `COc1cc(C(=O)c2ccc(-c3csc(NC(=O)[C@@H](N)Cc4ccccc4)n3)cc2-n2cncn2)cc(OC)c1OC`, for which, in the data set with HL-60, the IC50 amounted to 89 nM. For the same molecule, the Activity in the data set with Mus musculus [2] amounted to 28.9%; with Mus musculus [3], 24.5%; in the data set on CX-1 [4], 21%; in the data set on CX-1 [5], 43%. Further, the result in the data set on CX-1 [6] and in the data set with CX-1 [7] was Active.

`COc1cc(C(=O)c2ccc(-c3csc(NC(=O)C(C)(C)N)n3)cc2-n2cncn2)cc(OC)c1OC` returned an IC50 with HL-60 of 5 nM. For the same molecule, the Activity is on record as 24.8% in the data set on Mus musculus [2], 26.7% with Mus musculus [3], 23% in the data set with CX-1 [4] and 20% in the data set with CX-1 [5]. Also, the result in the data set with CX-1 [6] and in the data set with CX-1 [7] was Active.

Molecule `COc1cc(C(=O)c2ccc(-c3csc(NC(=O)[C@H](N)Cc4ccc(C(F)(F)F)cc4)n3)cc2-n2cncn2)cc(OC)c1OC` displayed an IC50 in the data set with HL-60 greater than 2000 nM.

`COc1cc(C(=O)c2ccc(-c3csc(NC(=O)[C@@H](N)CC(C)C)n3)cc2-n2cncn2)cc(OC)c1OC` had an IC50 with HL-60 of 76 nM.

As to `COc1cc(C(=O)c2ccc(-c3csc(NC(=O)[C@@H]4CCCN4)n3)cc2-n2cncn2)cc(OC)c1OC`, in the data set on HL-60, half-maximal inhibition (IC50) required 98 nM.

As for `COc1cc(C(=O)c2ccc(-c3csc(NC(=O)[C@H](N)Cc4ccc(F)cc4)n3)cc2-n2cncn2)cc(OC)c1OC`, the IC50 in the data set with HL-60 stood at 740 nM.

In the data set with HL-60, `COc1cc(C(=O)c2ccc(-c3csc(NC(=O)[C@H](C)N)n3)cc2-n2cncn2)cc(OC)c1OC` returned an IC50 of 13 nM. Besides, the Activity was -1.7% in the data set with Mus musculus [14] and 62% in the data set with HCT-116 [15]. For the same molecule, in the data set with HCT-116 [16], the result was Active.
